Experimental data as given in ChEMBL document CHEMBL6096673, “In Pursuit of Lead Innovation: Pharmaceutically Important and Distinct Amide-Free Succinate Dehydrogenase Inhibitors” (J Med Chem, 2025).
Values after ≈ are worked out from the molar mass of the structure shown.

Key:
[1] = test system: Rhizoctonia solani; assay: Antifungal activity against Rhizoctonia solani; assay type: functional, organism-based
[2] = target: T1, Liver carboxylesterase (Sus scrofa, UniProt Q29550); assay: Inhibition of porcine liver carboxylesterase
T1 sequence (Q29550 whole entry): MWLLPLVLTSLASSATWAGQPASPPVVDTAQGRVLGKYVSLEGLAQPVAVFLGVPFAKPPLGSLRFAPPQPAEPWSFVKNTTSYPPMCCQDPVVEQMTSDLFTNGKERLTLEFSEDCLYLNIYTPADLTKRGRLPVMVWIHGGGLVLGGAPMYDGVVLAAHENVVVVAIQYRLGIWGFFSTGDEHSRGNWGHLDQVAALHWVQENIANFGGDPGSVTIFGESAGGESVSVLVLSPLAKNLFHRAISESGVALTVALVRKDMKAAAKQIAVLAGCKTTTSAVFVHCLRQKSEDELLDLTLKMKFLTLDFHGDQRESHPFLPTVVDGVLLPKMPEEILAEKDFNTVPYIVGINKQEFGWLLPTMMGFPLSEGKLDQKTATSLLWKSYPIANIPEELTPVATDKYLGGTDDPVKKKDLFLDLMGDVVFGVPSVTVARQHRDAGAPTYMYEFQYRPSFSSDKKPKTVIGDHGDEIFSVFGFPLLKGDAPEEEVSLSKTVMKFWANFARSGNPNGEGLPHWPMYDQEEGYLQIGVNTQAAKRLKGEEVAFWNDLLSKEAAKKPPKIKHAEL

[3] = test system: Fusarium graminearum; assay: Antifungal activity against Gibberella zeae; assay type: functional, organism-based
[4] = test system: Alternaria solani; assay: Antifungal activity against Alternaria solani; assay type: functional, organism-based
[5] = test system: Botrytis cinerea; assay: Antifungal activity against Botrytis cinerea; assay type: functional, organism-based
[6] = test system: Sclerotinia sclerotiorum; assay: Antifungal activity against Sclerotinia sclerotiorum; assay type: functional, organism-based
[7] = test system: Trichophyton mentagrophytes; assay: Antifungal activity against Trichophyton mentagrophytes; assay type: functional, organism-based
[8] = test system: Plasmodium falciparum; assay: Antiplasmodial activity against Plasmodium falciparum; assay type: functional, organism-based
[9] = test system: Sclerotinia sclerotiorum; assay: Antifungal activity against Sclerotinia sclerotiorum assessed as inhibition of fungal growth; assay type: functional, organism-based
[10] = Binding affinity to carboxylesterase (unknown origin) assessed as inhibition constant by fluorescence analysis; parameters: species or system Homo sapiens

With `Cn1cc(/C=N/Oc2cccc(Br)c2)c(C(F)F)n1` as the molecule, how does the IC50 [1] read?
The IC50 was 4.53 µg/mL (≈ 13.7 µM).

With `Cn1cc(/C=N\Oc2cccc(Br)c2)c(C(F)F)n1` as the molecule, how does the IC50 [1] read?
The IC50 was 0.21 µg/mL (≈ 0.636 µM).

Which IC50 [2] does the source give for `COc1nc(O)c(C(=O)CC[C@H](C)[C@@H](Cl)CCl)c(O)c1OC` here?
Its IC50 is 315 nM.

With `Fc1ccc(C2C=C(c3ccc4c(c3)OCO4)NC(=S)N2)cc1` (configuration not stated) as the molecule, how does the EC50 [3] read?
Its EC50 is 0.57 µg/mL (≈ 1.74 µM).

What about the EC50 [4] of the same molecule?
Its EC50 is 0.07 µg/mL (≈ 0.213 µM).

What about the EC50 [5] of the same molecule?
Its EC50 is 0.44 µg/mL (≈ 1.34 µM).

With `COc1nc(O)c(C(=O)[C@@H](C)C[C@H](C)[C@H](Cl)CCl)c(O)c1OC` as the molecule, how does the IC50 [2] read?
Its IC50 is 22.4 nM.

Which IC50 [2] does the source give for `COc1nc(O)c(C(=O)[C@H](C)C[C@H](C)[C@@H](Cl)CCl)c(O)c1OC` here?
The IC50 was 2000 nM.

Which IC50 [1] does the source give for `Cn1cc(/C=N\Oc2cccc(F)c2)c(C(F)F)n1` here?
Its IC50 is 1.35 µg/mL (≈ 5.01 µM).

For `C=CCC/C=C\C=C/CCCCCCC1CC[C@@H]([C@@H]2CC[C@@H](CC(=O)OC)OO2)O1` (single isomer, unassigned), which IC50 [2] is on record?
The IC50 was under 1000 nM.

For `C=CCC/C=C\C=C/CCCCCC[C@H]1CC[C@H]([C@@H]2CC[C@@H](CC(=O)OC)OO2)O1`, which IC50 [2] is on record?
The IC50 was under 1000 nM.

For `Cn1cc(/C=N\Oc2cccc(I)c2)c(C(F)F)n1`, which IC50 [1] is on record?
The IC50 was 1.43 µg/mL (≈ 3.79 µM).

With `COc1nc(O)c(C(=O)[C@@H](C)C[C@@H](C)[C@@H](Cl)CCl)c(O)c1OC` as the molecule, how does the IC50 [2] read?
The IC50 was 7 nM.

Which IC50 [2] does the source give for `CC[C@@H](C)C[C@H](C)C(=O)c1c(O)nc(OC)c(OC)c1O` here?
The IC50 was 2100 nM.

Which IC50 [2] does the source give for `COc1[nH]c(=O)c(C(=O)[C@@H](C)C[C@H](C)[C@@H](Cl)CCl)c(O)c1OC` [ATPENIN A5] here?
The IC50 was 14 nM.

With `O=C(NCCc1ncc(C(F)(F)F)cc1Cl)c1ccccc1C(F)(F)F` [FLUOPYRAM] as the molecule, how does the IC50 [2] read?
Its IC50 is under 1000 nM.

With `COc1nc(O)c(C(=O)[C@@H](C)C[C@H](C)[C@H](C)Cl)c(O)c1OC` as the molecule, how does the IC50 [2] read?
Its IC50 is 110 nM.

With `Cc1ccc(-c2cc(-c3ccco3)nc(C)n2)cc1` as the molecule, how does the EC50 [6] read?
Its EC50 is 0.07 µg/mL (≈ 0.28 µM).

Which IC50 [1] does the source give for `COC(=O)C1=C(C)OC(N)=C(C#N)C1c1ccc(Cl)s1` (configuration not stated) here?
The IC50 was 1.06 µg/mL (≈ 3.41 µM).

For `Cc1ccc(-c2cc(-c3ccc(Cl)cc3)nc(-n3cccn3)n2)o1`, which EC50 [6] is on record?
Its EC50 is 0.08 µg/mL (≈ 0.238 µM).

For `Cn1cc(/C=N/Oc2cccc(F)c2)c(C(F)F)n1`, which IC50 [1] is on record?
Its IC50 is 2.94 µg/mL (≈ 10.9 µM).

Which IC50 [7] does the source give for `Cc1cc(O)c2c(c1)O[C@@]1(C)CC[C@H]3C(C)(C)CCC[C@]34CO[C@@H]2[C@H]41` [SICCANIN] here?
Its IC50 is 0.3 µg/mL (≈ 0.876 µM).

And the IC50 [8]?
The IC50 was 8400 nM.

For `COc1cc(-c2ccc(Br)o2)cc(-c2ccc(Br)cc2)n1`, which IC50 [9] is on record?
Its IC50 is 1.15 µg/mL (≈ 2.81 µM).

Which EC50 [6] does the source give for `CCOC(=O)C(C#N)C(CC(=O)c1ccc(Br)cc1)c1ccco1` (configuration not stated) here?
The EC50 was 3.3 µg/mL (≈ 8.46 µM).

With `O=C(CC(=O)C(F)(F)F)c1cccs1` as the molecule, how does the Ki [10] read?
The Ki was 610 nM.

With `Cn1cc(/C=N/Oc2cccc(I)c2)c(C(F)F)n1` as the molecule, how does the IC50 [1] read?
The IC50 was 1.57 µg/mL (≈ 4.16 µM).
